Tests used:
[1] = molecular target: Cyclin-dependent kinase 7 (Homo sapiens, UniProt P50613); test: Inhibition of CDK7 (unknown origin)
[2] = molecular target: Cyclin-dependent kinase 5 (Homo sapiens, UniProt Q00535); test: Inhibition of CDK5 (unknown origin)
Cyclin-dependent kinase 5, sequence (Q00535 whole entry): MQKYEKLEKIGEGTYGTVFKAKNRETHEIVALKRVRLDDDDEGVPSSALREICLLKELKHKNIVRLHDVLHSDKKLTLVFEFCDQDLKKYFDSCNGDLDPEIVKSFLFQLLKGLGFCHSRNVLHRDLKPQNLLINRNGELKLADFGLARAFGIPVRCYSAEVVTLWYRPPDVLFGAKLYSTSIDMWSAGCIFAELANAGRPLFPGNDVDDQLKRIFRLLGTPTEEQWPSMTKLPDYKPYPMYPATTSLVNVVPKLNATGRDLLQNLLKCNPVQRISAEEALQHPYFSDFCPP

Cyclin-dependent kinase 7, sequence (P50613 whole entry): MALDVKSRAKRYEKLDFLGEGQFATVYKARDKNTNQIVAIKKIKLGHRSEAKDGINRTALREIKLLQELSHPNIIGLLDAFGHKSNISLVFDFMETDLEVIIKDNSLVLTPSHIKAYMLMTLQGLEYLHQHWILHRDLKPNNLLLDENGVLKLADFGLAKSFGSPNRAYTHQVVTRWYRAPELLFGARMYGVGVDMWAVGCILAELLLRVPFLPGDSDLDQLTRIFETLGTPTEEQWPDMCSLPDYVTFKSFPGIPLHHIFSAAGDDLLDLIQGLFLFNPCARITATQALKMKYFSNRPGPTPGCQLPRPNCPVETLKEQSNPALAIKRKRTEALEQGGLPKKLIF

Work on `CC[C@H](Nc1nc(NCc2cnc(C)cc2C)c2ncn(C(C)C)c2n1)[C@@H](C)O` [US8592581, 1] yielded an IC50 [1] of 193 nM and an IC50 [2] of 21 nM.
